Experimental data taken from patent publication US5286492A, “Method of treatment of Heliobacter pylori infections with triclosan” (Reckitt & Colman Products Limited, priority 1990, dated 1994).
≈ marks a conversion by molar mass, not a printed value. Like-named read-outs stand apart in the source and are kept apart here.

Legend:
Helicobacter pylori [1] = test: MIC50/MIC90 versus Helicobacter pylori by agar dilution technique at neutral pH; type: cell-based; conditions: for activity compared with the twelve agents tested: Table 1
Method: (§1) The in vitro activities of a range of antimicrobial compounds versus Helicobacter pylori were determined by methods based on those of McNulty et al (Antimicrobial Agents and Chemotherapy, 28, 837-838, 1985). The Minimum Inhibitory concentrations for 50% and 90% of the strains used (MIC50 and MIC90), versus each antimicrobial were determined using an agar dilution technique.
(§2) The MIC of an antimicrobial agent was defined as that concentration (in mg per liter of agar) at which less than 1 in 10^5 organisms produced visible colonies.
(§3) Helicobacter pylori strains were isolated from gastric antrum biopsy specimens taken at routine endoscopy during investigation of upper gastrointestinal symptoms. They were identified as Helicobacter pylori by their colonial morphology, gram stain appearance and positive rapid urease test. The organisms were stored in liquid nitrogen before use and subcultured for testing by 48 hour incubation, at 37° C. under 10% carbon dioxide in Tryptone Soya Broth (TSB, OXOID, UK) plus 5% horse serum (Tissue Culture Services, UK).
The first test procedure determined the effectiveness of a range of antimicrobial substances versus 16 to 18 strains of Helicobacter pylori at neutral pH. Freshly prepared Isosensitest Agar of pH 7.2 (Oxoid, UK) supplemented with 10% saponinlysed horse blood was used to prepare a dilution series of each antimicrobial from which agar plates were produced. A multipoint inoculator (Denley-Tech, UK) was used to deliver 1 µl of undiluted test culture to the surface of each plate in the dilution series to give approximately 10^6 cfu/spot. The plates were incubated for three days at 37° C. in a microaerobic atmosphere of 6% oxygen and 10% carbon dioxide.

Helicobacter pylori [2] = conditions: cited from earlier work
Helicobacter pylori [3] = test: Effect of pH (5 to 8) on activity (MIC90) against Helicobacter pylori, agar dilution; type: cell-based; conditions: for MIC90 / MIC: Helicobacter pylori; for activity compared among the three agents (in words) / effect of pH on activity (in words): pH range 5 to 8
Method: as §1, §2, §3
The three selected agents were triclosan, clioquinol (5-chloro-7-iodo-8-hydroxy-quinolone) and cetalkonium chloride.
In the test procedure, Sorensens phosphate buffer (0.1M) was used to prepare the range of pH values 5, 5.5, 6, 6.5, 7, 7.5 and 8. Oxoid Columbia Agar Base (CM331) was added and the media autoclaved. After cooling to 50° C., 7% Lysed Horse Blood (Tissue Culture Services, UK) was added and media at each pH was used to prepare a range of concentrations of the three selected test antimicrobial agents. To ensure pH stability, a surface pH electrode was used to monitor control plates before, during and at the end of the three day microaerobic incubation.
The MIC90 was determined for each at each pH as described in the previous test procedure.

[4] = test system: Helicobacter pylori infection; conditions: by twelve months post therapy; cited from earlier work
[5] = Helicobacter pylori, 72 h, eighteen isolates, neutral pH (agar pH 7.2), read-out: MIC50
[6] = Helicobacter pylori, eighteen isolates, neutral pH (agar pH 7.2), read-out: MIC90
[7] = Helicobacter pylori, eighteen isolates, neutral pH (agar pH 7.2), read-out: MIC Range
[8] = Helicobacter pylori, pH 7.2, read-out: MIC Range
[9] = eighteen isolates, neutral pH (agar pH 7.2)
[10] = pH 5.0, sixteen isolates (triclosan, clioquinol) or eighteen (cetalkonium chloride), read-out: MIC90
[11] = pH 5.0, sixteen isolates (triclosan, clioquinol) or eighteen (cetalkonium chloride), read-out: MIC Range
[12] = pH 5.5, sixteen isolates (triclosan, clioquinol) or eighteen (cetalkonium chloride), read-out: MIC90
[13] = pH 5.5, sixteen isolates (triclosan, clioquinol) or eighteen (cetalkonium chloride), read-out: MIC Range
[14] = pH 6.0, sixteen isolates (triclosan, clioquinol) or eighteen (cetalkonium chloride), read-out: MIC90
[15] = pH 6.0, sixteen isolates (triclosan, clioquinol) or eighteen (cetalkonium chloride), read-out: MIC Range
[16] = pH 6.5, sixteen isolates (triclosan, clioquinol) or eighteen (cetalkonium chloride), read-out: MIC90
[17] = pH 7.0, sixteen isolates (triclosan, clioquinol) or eighteen (cetalkonium chloride), read-out: MIC90
[18] = pH 7.0, sixteen isolates (triclosan, clioquinol) or eighteen (cetalkonium chloride), read-out: MIC Range
[19] = pH 7.5, sixteen isolates (triclosan, clioquinol) or eighteen (cetalkonium chloride), read-out: MIC90
[20] = pH 7.5, sixteen isolates (triclosan, clioquinol) or eighteen (cetalkonium chloride), read-out: MIC Range
[21] = pH 8.0, sixteen isolates (triclosan, clioquinol) or eighteen (cetalkonium chloride), read-out: MIC90

Compound: N=C(NCCCCCCNC(=N)NC(=N)Nc1ccc(Cl)cc1)NC(=N)Nc1ccc(Cl)cc1 [Hibitane]
- MIC50 (Helicobacter pylori [1]; [5]): 32 µg/mL (≈ 63.3 µM)
- MIC90 (Helicobacter pylori [1]; [6]): 32 µg/mL (≈ 63.3 µM)
- MIC (Helicobacter pylori [1]; [7]): 16 to 32 µg/mL (≈ 31.7 to 63.3 µM)

Compound: Cc1ncc([N+](=O)[O-])n1CCO [metronidazole]
- distribution of MICs (previously reported) (Helicobacter pylori [2]): bimodal distribution

Compound: Oc1cc(Cl)ccc1Oc1ccc(Cl)cc1Cl [Triclosan, 2-hydroxy-4,2',4'-trichloro-diphenyl ether]
- MIC90 (Helicobacter pylori [3]; pH 5): 0.25 µg/mL (≈ 0.863 µM)
- MIC (Helicobacter pylori [3]; pH 5, read-out: MIC Range): 0.06 to 0.25 µg/mL (≈ 0.207 to 0.863 µM)
- MIC90 (Helicobacter pylori [3]; pH 5.5): 1 µg/mL (≈ 3.45 µM)
- MIC (Helicobacter pylori [3]; pH 5.5, read-out: MIC Range): 0.06 to 1 µg/mL (≈ 0.207 to 3.45 µM)
- MIC90 (Helicobacter pylori [3]; pH 6): 1 µg/mL (≈ 3.45 µM)
- MIC (Helicobacter pylori [3]; pH 6, read-out: MIC Range): 0.12 to 2 µg/mL (≈ 0.414 to 6.91 µM)
- MIC90 (Helicobacter pylori [3]; pH 6.5): 2 µg/mL (≈ 6.91 µM)
- MIC (Helicobacter pylori [3]; pH 6.5, read-out: MIC Range): 0.12 to 4 µg/mL (≈ 0.414 to 13.8 µM)
- MIC90 (Helicobacter pylori [3]; pH 7): 2 µg/mL (≈ 6.91 µM)
- MIC (Helicobacter pylori [3]; pH 7, read-out: MIC Range): 0.06 to 4 µg/mL (≈ 0.207 to 13.8 µM)
- MIC90 (Helicobacter pylori [3]; pH 7.5): 2 µg/mL (≈ 6.91 µM)
- MIC (Helicobacter pylori [3]; pH 7.5, read-out: MIC Range): 0.06 to 4 µg/mL (≈ 0.207 to 13.8 µM)
- MIC90 (Helicobacter pylori [3]; pH 8): 2 µg/mL (≈ 6.91 µM)
- MIC (Helicobacter pylori [3]; pH 8, read-out: MIC Range): 0.06 to 2 µg/mL (≈ 0.207 to 6.91 µM)
- activity compared among the three agents (in words) (Helicobacter pylori [3]): demonstrated the greatest activity
- effect of pH on activity (in words) (Helicobacter pylori [3]): low at pH 5.0 and unaffected in the range pH 5.5 to 8.0
- MIC50 (Helicobacter pylori [1]; Helicobacter pylori, 72 h, pH 7.2): 1 µg/mL (≈ 3.45 µM)
- MIC90 (Helicobacter pylori [1]; Helicobacter pylori, pH 7.2): 8 µg/mL (≈ 27.6 µM)
- MIC (Helicobacter pylori [1]; [8]): 0.25 to 16 µg/mL (≈ 0.863 to 55.3 µM)
- activity compared with the twelve agents tested (Helicobacter pylori [1]; neutral pH): demonstrated the greatest activity of the twelve antimicrobial agents tested

Compound: CCS(=O)(=O)CCn1c([N+](=O)[O-])cnc1C [Tinidazole]
- MIC50 (Helicobacter pylori [1]; [5]): 0.5 µg/mL (≈ 2.02 µM)
- MIC (Helicobacter pylori [1]; Helicobacter pylori, 72 h, fifteen of eighteen isolates, neutral pH, read-out: MIC of sensitive isolates): < 2 µg/mL
- MIC (Helicobacter pylori [1]; Helicobacter pylori, 72 h, three of eighteen strains, neutral pH, read-out: MIC of strains demonstrating evidence of resistance): 16 µg/mL
- MIC90 (Helicobacter pylori [1]; [6]): 16 µg/mL (≈ 64.7 µM)
- MIC (Helicobacter pylori [1]; [7]): 0.25 to 16 µg/mL (≈ 1.01 to 64.7 µM)
- distribution of MICs (Helicobacter pylori [1]; eighteen isolates, neutral pH): bimodal distribution of MICs
- activity compared with the twelve agents tested (Helicobacter pylori [1]; neutral pH): demonstrated the greatest activity of the twelve antimicrobial agents tested

Compound: Halquinol
- MIC50 (Helicobacter pylori [1]; [9]): 16 µg/mL
- MIC90 (Helicobacter pylori [1]; [9]): 16 µg/mL
- MIC Range (Helicobacter pylori [1]; [9]): 16 µg/mL

Compound: CCCCC(CC)CN1CN(CC(CC)CCCC)CC(C)(N)C1 (stereo not drawn) [Hexetidine]
- MIC50 (Helicobacter pylori [1]; [5]): 16 µg/mL (≈ 47.1 µM)
- MIC90 (Helicobacter pylori [1]; [6]): 16 µg/mL (≈ 47.1 µM)
- MIC (Helicobacter pylori [1]; [7]): 8 to 16 µg/mL (≈ 23.6 to 47.1 µM)

Compound: CCCCCCc1ccc(O)cc1O [4-Hexylresorcinol]
- MIC50 (Helicobacter pylori [1]; [5]): 32 µg/mL (≈ 165 µM)
- MIC90 (Helicobacter pylori [1]; Helicobacter pylori, pH 7.2): 32 µg/mL (≈ 165 µM)
- MIC (Helicobacter pylori [1]; [7]): 16 to 32 µg/mL (≈ 82.4 to 165 µM)

Compound: bismuth
- recurrence of the infection [4]: ~100%

Compound: COc1ccccc1O [Guaiacol]
- MIC50 (Helicobacter pylori [1]; [5]): 64 µg/mL (≈ 516 µM)
- MIC90 (Helicobacter pylori [1]; [6]): 64 µg/mL (≈ 516 µM)
- MIC (Helicobacter pylori [1]; [7]): 32 to 128 µg/mL (≈ 258 to 1030 µM)

Compound: Oc1c(I)cc(Cl)c2cccnc12 [Clioquinol, 5-chloro-7-iodo-8-hydroxy-quinolone]
- MIC (Helicobacter pylori [3]; pH 6.5, read-out: MIC Range): 0.5 to 16 µg/mL (≈ 1.64 to 52.4 µM)
- MIC (Helicobacter pylori [3]; pH 8, read-out: MIC Range): 0.5 to 2 µg/mL (≈ 1.64 to 6.55 µM)
- MIC90 (Helicobacter pylori [3]; [10]): 2 µg/mL (≈ 6.55 µM)
- MIC (Helicobacter pylori [3]; [11]): 0.5 to 4 µg/mL (≈ 1.64 to 13.1 µM)
- MIC90 (Helicobacter pylori [3]; [12]): 8 µg/mL (≈ 26.2 µM)
- MIC (Helicobacter pylori [3]; [13]): 2 to 8 µg/mL (≈ 6.55 to 26.2 µM)
- MIC90 (Helicobacter pylori [3]; [14]): 8 µg/mL (≈ 26.2 µM)
- MIC (Helicobacter pylori [3]; [15]): 2 to 8 µg/mL (≈ 6.55 to 26.2 µM)
- MIC90 (Helicobacter pylori [3]; [16]): 8 µg/mL (≈ 26.2 µM)
- MIC90 (Helicobacter pylori [3]; [17]): 2 µg/mL (≈ 6.55 µM)
- MIC (Helicobacter pylori [3]; [18]): 0.5 to 4 µg/mL (≈ 1.64 to 13.1 µM)
- MIC90 (Helicobacter pylori [3]; [19]): 2 µg/mL (≈ 6.55 µM)
- MIC (Helicobacter pylori [3]; [20]): 0.5 to 4 µg/mL (≈ 1.64 to 13.1 µM)
- MIC90 (Helicobacter pylori [3]; [21]): 1 µg/mL (≈ 3.27 µM)
- MIC50 (Helicobacter pylori [1]; [5]): 16 µg/mL (≈ 52.4 µM)
- MIC (Helicobacter pylori [1]; [8]): 8 to 16 µg/mL (≈ 26.2 to 52.4 µM)
- MIC90 (Helicobacter pylori [1]; [6]): 16 µg/mL (≈ 52.4 µM)

Compound: Oc1ccc(Cl)cc1Cc1cc(Cl)ccc1O [Dichlorphen]
- MIC50 (Helicobacter pylori [1]; [5]): 16 µg/mL (≈ 59.5 µM)
- MIC90 (Helicobacter pylori [1]; [6]): 16 µg/mL (≈ 59.5 µM)
- MIC (Helicobacter pylori [1]; [7]): 8 to 16 µg/mL (≈ 29.7 to 59.5 µM)

Compound: O=C([O-])CC(O)(CC(=O)[O-])C(=O)[O-].O=C([O-])CC(O)(CC(=O)[O-])C(=O)[O-].[Bi+3].[K+].[K+].[K+] [bismuth subcitrate]
- reported MIC90 (Helicobacter pylori [2]; neutral pH): 16 µg/mL

Compound: CCCCCCCCCCCCCCCC[N+](C)(C)Cc1ccccc1 [Cetalkonium Cl]
- MIC (Helicobacter pylori [3]; pH 8, read-out: MIC Range): 1 to 8 µg/mL
- MIC90 (Helicobacter pylori [3]; [10]): 1 µg/mL
- MIC (Helicobacter pylori [3]; [11]): 0.5 to 2 µg/mL
- MIC90 (Helicobacter pylori [3]; [12]): 2 µg/mL
- MIC (Helicobacter pylori [3]; [13]): 0.5 to 2 µg/mL
- MIC90 (Helicobacter pylori [3]; [14]): 2 µg/mL
- MIC (Helicobacter pylori [3]; [15]): 1 to 4 µg/mL
- MIC90 (Helicobacter pylori [3]; [16]): 4 µg/mL
- MIC (Helicobacter pylori [3]; pH 6.5, sixteen isolates (triclosan, clioquinol) or eighteen (cetalkonium chloride), read-out: MIC Range): 2 to 4 µg/mL
- MIC90 (Helicobacter pylori [3]; [17]): 4 µg/mL
- MIC (Helicobacter pylori [3]; [18]): 2 to 4 µg/mL
- MIC90 (Helicobacter pylori [3]; [19]): 4 µg/mL
- MIC (Helicobacter pylori [3]; [20]): 1 to 4 µg/mL
- MIC90 (Helicobacter pylori [3]; [21]): 2 µg/mL
- activity compared among the three agents (in words) (Helicobacter pylori [3]): demonstrated similar MIC90 activity profiles across the pH range
- effect of pH on activity (in words) (Helicobacter pylori [3]): largely unaffected by pH over the range 5 to 8
- MIC50 (Helicobacter pylori [1]; [5]): 2 µg/mL
- MIC (Helicobacter pylori [1]; [8]): 2 to 4 µg/mL
- MIC90 (Helicobacter pylori [1]; [6]): 4 µg/mL

Compound: Cc1cc(O)cc(C)c1Cl [PCMX]
- MIC50 (Helicobacter pylori [1]; [5]): 32 µg/mL (≈ 204 µM)
- MIC90 (Helicobacter pylori [1]; [6]): 64 µg/mL (≈ 409 µM)
- MIC (Helicobacter pylori [1]; [7]): 8 to 64 µg/mL (≈ 51.1 to 409 µM)
